Laboratory results: patent US12678488B2, “Batch management method for improving farrowing rate or number of piglets born alive in swine” (priority 2024, dated 2026)
Marks after values point to notes of the source that are not given here.

How the values were obtained:
Format in all cases: in vivo, pigs
[1] = test system: Landrace x Large White binary sows; assay: Pregnancy, farrowing rate, litter size and piglet index of gilts in batch farrowing with FTAI (Example 3)
Procedure: The term “farrowing rate”, as used herein, was calculated as the percentage of the number of farrowed sows divided by the number of mated gilts and sows.
For example, in the case of a certain batch of sows, the farrowing rate=the number of farrowing sows/the number of mated gilts and sows×100%.
The term “Piglet Index (PI)”, as used herein, refers to the total number of live piglets born per 100 gilts or sows that have been naturally mated or artificially inseminated. The calculation method is the average number of born alive per litter multiplied by the farrowing rate and then multiplied by the total gilts or sows (100).
The breed of the gilts used in this example was Landrace x Large White binary sows, the reserve sows were randomly divided into the following 4 groups, and the treatment method for each group was as follows:
batch farrowing with FTAI: the sows were fed with an altrenogest oral solution at 20 mg/gilt at the same time every day, for 18 days; PMSG at 1000 IU/gilt was injected intramuscularly 42 h after the last feeding with altrenogest, GnRH at 100 μg/gilt was further injected intramuscularly 80 h after the intramuscular injection of PMSG, a first timed insemination was performed 24 h after the injection of GnRH, and a second timed insemination was performed after 24 h.
(§1) Treatment group 1 (batch farrowing with FTAI, with supplementing with 1-[bis(4-cyanophenyl)methyl]-1,2,4-triazole (12 μg/kg·BW, orally once)): The hormone treatment and mating schemes for gilts were the same as those for gilts in the batch farrowing with FTAI. The gilts were administered orally once with 1-[bis(4-cyanophenyl)methyl]-1,2,4-triazole at 12 μg/kg·BW 8 h after the injection of PMSG.
Treatment group 2 (batch farrowing with FTAI, with supplementing with 1-[bis (4-cyanophenyl)methyl]-1,2,4-triazole (12 μg/kg·BW, orally twice)): The hormone treatment and mating schemes for gilts were the same as those for gilts in the batch farrowing with FTAI. The gilts were administered orally once with 1-[bis(4-cyanophenyl)methyl]-1,2,4-triazole at 12 μg/kg·BW 8 h after the injection of PMSG, and then orally once with 1-[bis(4-cyanophenyl)methyl]-1,2,4-triazole at 12 μg/kg·BW after another 24 h.
Treatment group 3 (batch farrowing with FTAI, supplemented with 1-[bis(4-cyanophenyl)methyl]-1,2,4-triazole (20 μg/kg·BW, orally in a single dose)): The hormone treatment and mating schemes for gilts were the same as those for gilts in the batch farrowing with FTAI. The gilts were administered orally once with 1-[bis(4-cyanophenyl)methyl]-1,2,4-triazole at 20 μg/kg·BW 8 h after the injection of PMSG.
The farrowing rate and piglet index of sows in the different treatment groups were calculated as follows:
wherein Piglet Index (PI), a comprehensive index to measure the overall reproductive performance of a sow population at present in production, refers to the number born alive from every 100 gilts or sows, who have undergone natural mating or artificial insemination.

batch farrowing sows = assay: Previous experiment of feeding batch farrowing sows with different doses at different times; settings: application dosage and oral administration time of clinical medicine and bovine superovulation
Procedure: In the disclosure, the administration dosage of 1-[bis(4-cyanophenyl)alkyl]-1,2,4-triazole is generally 10-50 μg/kg·BW administered in a single dose, preferably 12-30 μg/kg·BW administered in a single dose, further preferably 12-25 μg/kg·BW administered in a single dose, e.g., 13, 14, 15, 16, 17, 18, 19, 20, 21, 22, or 23 μg/kg·BW. Alternatively, it can be administered in two doses. As long as the total administration dosage of the two doses is within a range of 10-50 μg/kg·BW, the dosage of each administration is not particularly limited, for example, each administration dosage is generally within a range of 1-40 μg/kg·BW. In the case of two doses, the time interval between the two instances of administration is 8-30 hours, preferably 9-28 hours, more preferably 10-26 hours, further preferably 12-25 hours, 14-24 hours, etc. If the administration dosage is too high, it tends to affect the estrus and ovulation in animals and even cause ovarian cysts. The administration dosage of the disclosure is important.

[2] = test system: Landrace x Large White binary sows; assay: Number of ovulated oocytes (corpora lutea) in gilts slaughtered 16 days after mating (Example 4); settings: single low dose 12 μg/kg·BW, compared with batch farrowing with FTAI
Procedure: The breed of the gilts used in this experiment was Landrace x Large White binary sows, the gilts were randomly divided into the following 3 groups, and the treatment method for each group was as follows:
batch farrowing with FTAI: the gilts were fed with an altrenogest oral solution at 20 mg/gilt at the same time every day, for 18 days; PMSG at 1000 IU/gilt was injected intramuscularly 42 h after the last feeding with altrenogest, GnRH at 100 μg/gilt was injected intramuscularly after another 80 h, the first timed insemination was performed 24 h after the injection of GnRH, and the second timed insemination was performed after 24 h.
as §1, with “in a single dose):” for “once)):”
The gilts in the batch farrowing with FTAI and the gilts in the batch farrowing with FTAI supplementing once with 1-[bis(4-cyanophenyl)methyl]-1,2,4-triazole (12 μg/kg·BW) were slaughtered. The gilts were slaughtered 16 days after mating, with 4 gilts slaughtered per group. […]

[3] = Example 3, low-dose (treatment groups 1, 2, and 3), compared with batch farrowing with FTAI
[4] = Example 3, treatment group 1 (12 μg/kg·BW orally once), compared with batch farrowing with FTAI
[5] = Example 3, treatment groups 2 and 3
[6] = Example 3 Treatment group 1: 12 μg/kg·BW orally once, gilts
[7] = Example 3 Treatment group 2: 12 μg/kg·BW orally twice, 24 h apart, gilts
[8] = Example 3 Treatment group 3: 20 μg/kg·BW orally in a single dose, gilts

N#Cc1ccc(C(c2ccc(C#N)cc2)n2cncn2)cc1 [1-[bis(4-cyanophenyl)methyl]-1,2,4-triazole] was tested, and the estrus rate ([1]; Example 3, 20 μg/kg·BW group compared with 12 μg/kg·BW group) was “slightly lower”, the Piglet index [1, 3] was “significantly increased” and the farrowing rate [1, 3] was “significantly increased”. The pregnancy rate [1, 3] was “significantly increased”, the Healthy litter size [1, 4] was “significantly higher” and the number born alive [1, 4] was “significantly higher”. The Healthy litter size [1, 5] was “increasing trend”, the number born alive [1, 5] was “increasing trend” and the estrus rate ([1]; Example 3, treatment groups with different doses, compared with batch farrowing with FTAI) was “no significant difference”. For the same molecule, the “Delivery rate (%)” value [1, 6] was 88.00^b %, the “Estrus rate (%)” value [1, 6] was 92.00% and the Healthy litter size [1, 6] was 12.12 ± 0.32^b. The Live litter size [1, 6] was 12.44 ± 0.30^b, the Piglet index [1, 6] was 1094 and the “Pregnancy rate (%)” value [1, 6] was 92.00^b %. For the same molecule, the “Stillborn + mummy” value [1, 6] was 1.80 ± 0.22, the “Total number born litter size” value [1, 6] was 13.96 ± 0.30 and the Weak litter [1, 6] was 0.24 ± 0.10. For the same molecule, the “Delivery rate (%)” value [1, 7] was 83.33^b %, the “Estrus rate (%)” value [1, 7] was 93.75% and the Healthy litter size [1, 7] was 11.72 ± 0.43^a. For the same molecule, the Live litter size [1, 7] was 12.00 ± 0.45^a, the Piglet index [1, 7] was 1000 and the “Pregnancy rate (%)” value [1, 7] was 95.83^b %. For the same molecule, the “Stillborn + mummy” value [1, 7] was 1.56 ± 0.16, the “Total number born litter size” value [1, 7] was 13.76 ± 0.62 and the Weak litter [1, 7] was 0.28 ± 0.09. The “Delivery rate (%)” value [1, 8] was 81.48^b %, the “Estrus rate (%)” value [1, 8] was 88.89% and the Healthy litter size [1, 8] was 11.76 ± 0.37^a. The Live litter size [1, 8] was 12.04 ± 0.42^a, the Piglet index [1, 8] was 981 and the “Pregnancy rate (%)” value [1, 8] was 85.19^b %. The “Stillborn + mummy” value [1, 8] was 1.88 ± 0.39, the “Total number born litter size” value [1, 8] was 14.04 ± 0.53 and the Weak litter [1, 8] was 0.40 ± 0.10. The “live piglets (weaned piglets) increased by every 100 gilts” value ([1]; per 100 gilts, method of the disclosure versus batch farrowing with FTAI) was 190 live piglets, the “problems caused in sows” value (batch farrowing sows) was “recessive estrus, ovarian cyst, anovulation, and pregnancy failure” and the “number of ovulated oocytes” value [2] was “no significant effect”.
